Holding throughout (assay): inhibition of tumour cell growth, NCI panel, 48 h
The test system of experiment [1] is ACHN renal.
The subject of experiment [2] is HOP-62 NSCLC.
For experiment [3], the system named is M14 melanoma.
In experiment [4] the test system is NCI-H226 lung.
The subject of experiment [5] is NCI-H460 lung.
The test system of experiment [6] is OVCAR-8 ovarian.
Experiment [7] deals with UACC-257 melanoma.
Experiment [8] concerns UACC-62 melanoma.

The structures appear in SMILES notation.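 Test compounds were applied to cells in 96-well plates for 48 hours at 5 doses. GI50 marks 50% less growth. TGI is the concentration that stops growth completely.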

Consider `C#COc1cccc(Nc2ncnc3cc(NC(=O)[C@H](C)Cl)ccc23)c1`, for which the GI50 in experiment [1] is 3.05 µM; in experiment [2], 6.35 µM; in experiment [3] it was 2.27 µM; in experiment [4], 24.6 µM; in experiment [5] it was 2.18 µM; in experiment [6], 4.5 µM. Also, the GI50 in experiment [7] is above 62.5 µM; in experiment [8], 2.96 µM. For the same compound, the TGI in experiment [1], in experiment [2], in experiment [3], in experiment [4], in experiment [5] and in experiment [6] was above 62.5 µM throughout. The TGI in experiment [7] and in experiment [8] was above 62.5 µM throughout.
Turning to `Cc1ccc(NCCN(C)C)c2c(=O)c3ccccc3sc12`, the GI50 in experiment [1] was 1.68 µM; in experiment [2], 1.55 µM; in experiment [3], 1.59 µM; in experiment [4], 1.83 µM; in experiment [5] it was 1.41 µM; in experiment [6], 3.16 µM. Moreover, the figures for the GI50 in experiment [7] and in experiment [8] were 1.88 µM and 1.69 µM, respectively. Besides, the TGI in experiment [1] turned out to be 3.53 µM; in experiment [2], 3.11 µM; in experiment [3] it was 3.05 µM; in experiment [4], 3.96 µM; in experiment [5], 3.01 µM; in experiment [6], 12.4 µM. Also, the TGI in experiment [7] turned out to be 3.83 µM; in experiment [8], 3.29 µM.
For the compound `COc1ccc(/C=C\c2cc(OC)c(OC)c(OC)c2)cc1OCC(=O)Nc1ccc2nc(C)sc2c1`, the GI50 is 3.12 µM in experiment [1]; 3.09 µM in experiment [2]; 3.38 µM in experiment [3]; 2.75 µM in experiment [4]; 3.36 µM in experiment [5]; 2.12 µM in experiment [6]. Moreover, the GI50 in experiment [7] is 1.73 µM; in experiment [8], 2.19 µM. The TGI was 10.9 µM in experiment [1]; 8.85 µM in experiment [2]; 10.4 µM in experiment [3]; 12 µM in experiment [4]; 33.2 µM in experiment [5]; 5.41 µM in experiment [6]. Further, the TGI worked out at 3.4 µM in experiment [7] and 5.16 µM in experiment [8].
Regarding `CCS(=O)(=O)c1ccc(OC)c(Nc2ncc(-c3ccccc3Cl)o2)c1`, the GI50 in experiment [1] was above 19.1 µM; in experiment [2], 10.1 µM; in experiment [3] it was 12.5 µM; in experiment [4], 7.72 µM; in experiment [5], above 17.7 µM; in experiment [6], 9.9 µM. The GI50 was above 25 µM in experiment [7] and 11.3 µM in experiment [8]. The TGI in experiment [1], in experiment [2], in experiment [3], in experiment [4], in experiment [5] and in experiment [6] was above 25 µM each time. Besides, the TGI in experiment [7] and in experiment [8] was above 25 µM throughout.
For the compound `COc1cc(/C=C/c2cc(/C=C/c3ccc(O)c(OC)c3)n(C(=O)Nc3ccc(Cl)cc3)n2)ccc1O`, the GI50 is 0.52 µM in experiment [1]; 0.537 µM in experiment [2]; 0.37 µM in experiment [3]; 2.16 µM in experiment [4]; 0.327 µM in experiment [5]; 0.641 µM in experiment [6]. The GI50 is 1.26 µM in experiment [7] and 0.551 µM in experiment [8]. The TGI was 11.4 µM in experiment [1]; 1.85 µM in experiment [2]; 1.4 µM in experiment [3]; 7.92 µM in experiment [4]; 1.85 µM in experiment [5]; 3.31 µM in experiment [6]. Besides, the TGI in experiment [7] came to 6.81 µM; in experiment [8], 2.24 µM.
As to `O=C(c1ccccc1)n1c(-c2ccccc2)cs/c1=N\S(=O)(=O)c1ccc(N2N=C3c4ccccc4CC3C2c2cccs2)cc1` (centres undefined), the GI50 in experiment [1] was 43.8 µM; in experiment [2], 23.7 µM; in experiment [3] it was 33 µM; in experiment [4] it was 30.1 µM; in experiment [5], above 100 µM; in experiment [6], 42.9 µM. Moreover, the results for the GI50 in experiment [7] and in experiment [8] were 45.7 µM and 27.3 µM, respectively. Also, the TGI was above 100 µM in experiment [1]; 57.1 µM in experiment [2]; above 100 µM in experiment [3]; 85.2 µM in experiment [4]; above 100 µM in experiment [5]; above 100 µM in experiment [6]. For the same compound, the TGI is above 100 µM in experiment [7] and 87.2 µM in experiment [8].
Consider `Cc1ccc(-c2nc(-c3cn(C)c4ncccc34)cs2)cc1`, for which the GI50 is 7.65 µM in experiment [1]; 7.71 µM in experiment [2]; 2.35 µM in experiment [3]; 4.35 µM in experiment [4]; 3.43 µM in experiment [5]; 8.99 µM in experiment [6]. In addition, the GI50 in experiment [7] is 9.41 µM; in experiment [8], 3.17 µM. In addition, the TGI in experiment [1] turned out to be 29.2 µM; in experiment [2] it was 22 µM; in experiment [3], 8.18 µM; in experiment [4], 24.7 µM; in experiment [5], 14.9 µM; in experiment [6], 38.9 µM. Besides, the TGI in experiment [7] came out at 28 µM; in experiment [8], 16.3 µM.
As to `O=c1cc(-c2ccccc2)oc2cc(OC/C(=N/O)c3ccc(F)cc3)ccc12`, the GI50 in experiment [1] was 19.2 µM; in experiment [2], above 50 µM; in experiment [3] it was 46.7 µM; in experiment [4], 27.6 µM; in experiment [5] it was 12.9 µM; in experiment [6], 32.2 µM. Further, the GI50 is 35.3 µM in experiment [7] and 14.8 µM in experiment [8]. The TGI in experiment [1] is above 50 µM; in experiment [2] it was above 50 µM; in experiment [3] it was above 50 µM; in experiment [4], above 50 µM; in experiment [5], 44.2 µM; in experiment [6], above 50 µM. The TGI in experiment [7] and in experiment [8] was above 50 µM throughout.
In the case of `Nc1nc(=O)n([C@@H]2CS[C@H](CO)O2)cc1F`, the GI50 in experiment [1], in experiment [2], in experiment [3], in experiment [4], in experiment [5] and in experiment [6] was above 100 µM throughout. Moreover, the GI50 in experiment [7] and in experiment [8] was above 100 µM in each case. The TGI in experiment [1], in experiment [2], in experiment [3], in experiment [4], in experiment [5] and in experiment [6] was above 100 µM each time. The TGI in experiment [7] and in experiment [8] was above 100 µM throughout.

For the origin of these results see PubChem BioAssay (NCI).
